Measured values: patent US9428464B2, “Kynurenine-3-monooxygenase inhibitors, pharmaceutical compositions, and methods of use thereof” (CHDI Foundation, Inc., priority 2011, dated 2016)

Test system: KMO
Test: KMO activity assay: L-Kynurenine hydroxylation to 3-Hydroxy-Kynurenine, quantified by LC/MS
Type: biochemical
Conditions: compound at 10 uM; footnote: some portion of activity of amides may be due to contribution of acid precursor
Method in brief: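 Enzyme: KMO from mitochondria isolated from CHO cells expressing GST-His-KMO, with L-kynurenine as substrate (stock 10 mM in 100 mM potassium phosphate, pH 7.4). Conversion to 3-hydroxy-kynurenine quantified by LC/MS multiple reaction monitoring; compound stocks 10 mM in DMSO.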

## NC(=O)[C@H]1CCCN1C(=O)c1cc(-c2ccc(Cl)c(Cl)c2)ncn1 [(R)-1-[6-(3,4-Dichloro-phenyl)-pyrimidine-4-carbonyl]-pyrrolidine-2-carboxylic acid amide]
  % Inhibition at 10 uM: 101%

## O=C(N[C@H](CO)C(=O)O)c1cc(-c2ccc(Cl)c(Cl)c2)ncn1 [(R)-2-{[6-(3,4-Dichloro-phenyl)-pyrimidine-4-carbonyl]-amino}-3-hydroxy-propionic acid]
  % Inhibition at 10 uM: 91.12%

## NC(=O)[C@@H]1CCCN1C(=O)c1cc(-c2ccc(Cl)c(Cl)c2)ncn1 [(S)-1-[6-(3,4-Dichloro-phenyl)-pyrimidine-4-carbonyl]-pyrrolidine-2-carboxylic acid amide]
  % Inhibition at 10 uM: 99.05%

## O=C(N[C@@H](CO)C(=O)O)c1cc(-c2ccc(Cl)c(Cl)c2)ncn1 [(S)-2-{[6-(3,4-Dichloro-phenyl)-pyrimidine-4-carbonyl]-amino}-3-hydroxy-propionic acid]
  % Inhibition at 10 uM: 101.22%

## C[C@H](NC(=O)c1cc(-c2ccc(Cl)c(Cl)c2)ncn1)C(=O)O [(S)-2-{[6-(3,4-Dichloro-phenyl)-pyrimidine-4-carbonyl]-amino}-propionic acid]
  % Inhibition at 10 uM: 100.865%

## O=S(=O)(Nc1cc(-c2ccc(Cl)c(Cl)c2)ccn1)c1ccccc1 [N-[4-(3,4-dichlorophenyl)pyridin-2-yl]benzenesulfonamide]
  % Inhibition at 10 uM: 17%

## Cc1ccc(S(=O)(=O)Nc2cc(-c3ccc(Cl)c(Cl)c3)ncn2)c(C)c1 [N-[6-(3,4-dichlorophenyl)pyrimidin-4-yl]-2,4-dimethylbenzene-1-sulfonamide]
  % Inhibition at 10 uM: 56%

## O=S(=O)(Nc1cc(-c2ccc(Cl)c(Cl)c2)ncn1)c1ccccc1F [N-[6-(3,4-dichlorophenyl)pyrimidin-4-yl]-2-fluorobenzene-1-sulfonamide]
  % Inhibition at 10 uM: 103%

## O=S(=O)(Nc1cc(-c2ccc(Cl)c(Cl)c2)ncn1)c1cccc(OC(F)(F)F)c1 [N-[6-(3,4-dichlorophenyl)pyrimidin-4-yl]-3-(trifluoromethoxy)benzene-1-sulfonamide]
  % Inhibition at 10 uM: 100%

## O=S(=O)(Nc1cc(-c2ccc(Cl)c(Cl)c2)ncn1)c1cccc(F)c1 [N-[6-(3,4-dichlorophenyl)pyrimidin-4-yl]-3-fluorobenzene-1-sulfonamide]
  % Inhibition at 10 uM: 102%

## CN(c1cc(-c2ccc(Cl)c(Cl)c2)ncn1)S(=O)(=O)c1ccccc1 [N-[6-(3,4-dichlorophenyl)pyrimidin-4-yl]-N-methylbenzenesulfonamide]
  % Inhibition at 10 uM: 27%

## O=S(=O)(Nc1cc(-c2ccc(F)c(Cl)c2)ncn1)c1ccccc1 [N-[6-(3-Chloro-4-fluoro-phenyl)-pyrimidin-4-yl]-benzenesulfonamide]
  % Inhibition at 10 uM: 98%

## O=C(NS(=O)(=O)c1ccccc1)c1cc(-c2cccc(Cl)c2)ncn1 [N-[6-(3-Chloro-phenyl)-pyrimidine-4-carbonyl]-benzenesulfonamide]
  % Inhibition at 10 uM: 100.67%

## CS(=O)(=O)NC(=O)c1cc(-c2cccc(Cl)c2)ncn1 [N-[6-(3-Chloro-phenyl)-pyrimidine-4-carbonyl]-methanesulfonamide]
  % Inhibition at 10 uM: 101.58%

## O=S(=O)(Nc1cc(-c2ccc(F)c(Cl)c2)ncn1)c1ccccc1F [N-[6-(3-chloro-4-fluorophenyl)pyrimidin-4-yl]-2-fluorobenzene-1-sulfonamide]
  % Inhibition at 10 uM: 100%

## CC(=O)N[C@@H]1CCN(C(=O)c2cc(-c3ccc(Cl)c(Cl)c3)ncn2)C1 [N-{(R)-1-[6-(3,4-Dichloro-phenyl)-pyrimidine-4-carbonyl]-pyrrolidin-3-yl}-acetamide]
  % Inhibition at 10 uM: 98.55%

## CN(C)CCC(=O)N[C@H]1CCN(C(=O)c2cc(-c3ccc(Cl)c(Cl)c3)ncn2)C1 [N-{(S)-1-[6-(3,4-Dichloro-phenyl)-pyrimidine-4-carbonyl]-pyrrolidin-3-yl}-3-dimethylamino-propionamide]
  % Inhibition at 10 uM: 91.785%

## CC(=O)N[C@H]1CCN(C(=O)c2cc(-c3ccc(Cl)c(Cl)c3)ncn2)C1 [N-{(S)-1-[6-(3,4-Dichloro-phenyl)-pyrimidine-4-carbonyl]-pyrrolidin-3-yl}-acetamide]
  % Inhibition at 10 uM: 100.27%

## CN1CCN(C(=O)c2cc(-c3ccc(Cl)c(Cl)c3)ncn2)CC1 [[6-(3,4-Dichloro-phenyl)-pyrimidin-4-yl]-(4-methyl-piperazin-1-yl)-methanone]
  % Inhibition at 10 uM: 94.86%

## O=C(c1cc(-c2ccc(Cl)c(Cl)c2)ncn1)N1CCc2ccc(F)cc21 [[6-(3,4-Dichloro-phenyl)-pyrimidin-4-yl]-(6-fluoro-2,3-dihydro-indol-1-yl)-methanone]
  % Inhibition at 10 uM: 100.71%

## C[C@@H]1CN(C(=O)c2cc(-c3ccc(Cl)c(Cl)c3)ncn2)C[C@H](C)N1.O=C(O)C(F)(F)F [[6-(3,4-Dichloro-phenyl)-pyrimidin-4-yl]-((3S,5R)-3,5-dimethyl-piperazin-1-yl)-methanone, trifluoro-acetic acid salt]
  % Inhibition at 10 uM: 95.92%

## O=C(c1cc(-c2ccc(Cl)c(Cl)c2)ncn1)N1CCC[C@@H](O)C1 [[6-(3,4-Dichloro-phenyl)-pyrimidin-4-yl]-((R)-3-hydroxy-piperidin-1-yl)-methanone]
  % Inhibition at 10 uM: 99.86%

## O=C(c1cc(-c2ccc(Cl)c(Cl)c2)ncn1)N1CC[C@@H](O)C1 [[6-(3,4-Dichloro-phenyl)-pyrimidin-4-yl]-((R)-3-hydroxy-pyrrolidin-1-yl)-methanone]
  % Inhibition at 10 uM: 101.49%

## O=C(c1cc(-c2ccc(Cl)c(Cl)c2)ncn1)N1CCC[C@H](O)C1 [[6-(3,4-Dichloro-phenyl)-pyrimidin-4-yl]-((S)-3-hydroxy-piperidin-1-yl)-methanone]
  % Inhibition at 10 uM: 99.98%

## O=C(c1cc(-c2ccc(Cl)c(Cl)c2)ncn1)N1CCC(C(=O)N2CCOCC2)C1 (centres unmarked) [[6-(3,4-Dichloro-phenyl)-pyrimidin-4-yl]-[3-(morpholine-4-carbonyl)-pyrrolidin-1-yl]-methanone]
  % Inhibition at 10 uM: 90.83%

## O=C(c1cc(-c2ccc(Cl)c(Cl)c2)ncn1)N1CCN(C(=O)N2CCOCC2)CC1 [[6-(3,4-Dichloro-phenyl)-pyrimidin-4-yl]-[4-(morpholine-4-carbonyl)-piperazin-1-yl]-methanone]
  % Inhibition at 10 uM: 40.38%

## O=C(c1cc(-c2ccc(Cl)c(Cl)c2)ncn1)N1CCNCC1 [[6-(3,4-dichloro-phenyl)-pyrimidin-4-yl]-piperazin-1-yl-methanone]
  % Inhibition at 10 uM: 71.34%

## CCCCOC(=O)c1cc(-c2ccc(Cl)c(Cl)c2)ncn1 [butyl 6-(3,4-dichlorophenyl)pyrimidine-4-carboxylate]
  % Inhibition at 10 uM: 100%

## CC(C)OC(=O)c1cc(-c2ccc(Cl)c(Cl)c2)ncn1 [propan-2-yl 6-(3,4-dichlorophenyl)pyrimidine-4-carboxylate]
  % Inhibition at 10 uM: 100%
